From patent publication US12161642B2, “Ferrochelatase inhibitors and methods of use” (INDIANA UNIVERSITY RESEARCH AND TECHNOLOGY CORPORATION, priority 2018, dated 2024) come the findings set out here.

Bounds are passed on as bounds.

Assay [1] deals with recombinant human FECH (Homo sapiens (Human), UniProt P22830). The assay is described as follows: FECH enzymatic activity assay (Ni2+ mesoporphyrin IX formation, absorbance at 550 nm). Format: biochemical. The conditions noted are these: recombinant FECH; read-out: FECH IC50. The method, then:
The human FECH expression plasmid pHDTF20 was obtained in E. coli cells from the Dailey Lab (University of Georgia). The cells were grown in Circlegrow medium (MP Biomedicals, LLC #3000-122) with ampicillin for 20 hours. Cells were harvested, lysed in a Tris-MOPS buffer and purified by immobilized metal affinity chromatography using HisPur Cobalt resin (Thermo Fisher #89965).
The activity assay buffer was 100 mM Tris-HCl pH 8.0 with 0.05% octyl glucoside detergent. Assay reagents included 100 μM NiCl (Sigma #339350), 0.75 μM FECH enzyme and 100 μM mesoporphyrin (Sigma #258806) prepared in ammonium hydroxide (Santa Cruz #sc-214535).
The kinetic assay was optimized for a 384-well format. For the 384-well assay, each well contained a 50 μL reaction with 40 μL buffer, 5 μL mesoporphyrin solution, 5 μL NiCl and FECH solution. […] This time point was used for the chemical screen.
A mixture of assay buffer, NiCl and FECH enzyme (15 μL) was added to all wells on the assay plate using a MulitFlo dispenser. To start the reaction, 15 μL of a 333 μM mesoporphyrin solution in assay buffer was added to the plate, the plate spun down and the absorbance at OD=550 nm immediately read to establish a read at time 0. Plates were read for absorbance at OD=550 nm again at t=20 minutes and the activity was expressed as the change in the absorbance over the 20 minute reaction.
Compounds, reordered from ChemDiv or synthesized as described above, were made to 10 mM in DMSO and tested in the FECH enzymatic assay at final concentrations of […] 100 μM (1% final DMSO concentration). IC50 values for the compounds were determined using GraphPad Prism software.
A kinetic assay to monitor FECH enzymatic activity was adapted from a published protocol (Burden et a., Biochim Biophys Acta 1435, 191-197 (1999)).

The test system of assay [2] is HRECs. The assay is described as follows: HREC proliferation assay (alamarBlue), GI50 determination. Format: cell-based, human. The following applies: proliferation of HRECs. How it is done: Human retinal microvascular endothelial cells (HRECs) were cultured in EGM-2 medium (Lonza). Cells (2500/well) in EGM-2 medium were plated in 48 wells in the center of a 96-well black with clear bottom TC treated plate are allowed to attach overnight. The cells were treated with compounds such that final assay concentrations were 100 μM, 30 μM, 10 μM, 3 μM, 1 μM, 100 nM, and 10 nM with DMSO control (1% final DMSO concentration). Cells were allowed to proliferate for 44 hours prior to addition of alamarBlue. The alamarBlue reagent is a flurorometric/colorimetric redox reagent that is reduced in the presence of growing cells. The assay was completed with a read of fluorescence at excitation of 560 nm and emission of 590 nm. GI50 values were determined using GraphPad Prism software.

In assay [3] the test system is HRECs. The assay is described as follows: Matrigel-based tube formation assay. In kind it is cell-based, human. The following applies: 8 hours, total tubule length vs. DMSO control. The method, then: The Matrigel-based tube formation assay was performed. Briefly, 50 μL Matrigel was allowed to solidify in a 96-well black, clear bottom plate at 37° C. for 20 minutes. HRECs were added to the solid Matrigel at 15,000 cells/well in 100 μL EGM-2 and dosed with appropriate concentrations of compound in DMSO, 1 μL/well. Tube formation was observed every 2 hours by brightfield microscopy and images were taken after 8 hours of tube formation. Six images per treatment were analyzed using the AngiogenesisAnalyzer plugin for ImageJ and HREC total tubule length for treated cells was normalized to DMSO controls. Statistical analysis was completed using GraphPad Prism, with ANOVA followed by Dunnett's post hoc tests used to compare treatments to control (DMSO).

recombinant human FECH, sequence (P22830 55-423): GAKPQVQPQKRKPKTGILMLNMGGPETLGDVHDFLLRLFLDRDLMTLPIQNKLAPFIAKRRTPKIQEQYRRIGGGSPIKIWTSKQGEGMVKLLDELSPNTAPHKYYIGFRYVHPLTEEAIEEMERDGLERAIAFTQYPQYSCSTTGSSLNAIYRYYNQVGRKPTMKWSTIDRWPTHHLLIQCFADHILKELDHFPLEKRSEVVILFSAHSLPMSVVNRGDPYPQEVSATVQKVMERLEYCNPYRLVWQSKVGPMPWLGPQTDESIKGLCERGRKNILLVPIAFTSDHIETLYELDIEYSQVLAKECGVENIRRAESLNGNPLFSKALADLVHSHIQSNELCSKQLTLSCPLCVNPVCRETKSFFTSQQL

A word on the IC50: it is the concentration that gives 50% inhibition. Usually GI50 stands for the concentration at which growth is held to half of that of the control. A high value points to less potent growth inhibition. Take `CCCc1cc(=O)n2nc(CNc3ccccc3Cl)nc2[nH]1` [Example 5d, 2-(((2-chlorophenyl)amino)methyl)-5-propyl-[1,2,4]triazolo[1,5-a]pyrimidin-7(4H)-one]: the IC50 in assay [1] is over 100 µM. In assay [2] (Homo sapiens, HREC, 44 h), this molecule displayed a GI50 of 25.7 µM. The “tube formation of HRECs” value in assay [3] is recorded as “blocked tube formation”.

Regarding `CCCc1cc(=O)n2nc(CNc3ccc(Cl)cc3)nc2[nH]1` [Example 5f, 2-(((4-chlorophenyl)amino)methyl)-5-propyl-[1,2,4]triazolo[1,5-a]pyrimidin-7(4H)-one], the IC50 in assay [1] came out at 0.0916 µM. The molecule further showed a GI50 in assay [2] (44 hours) of over 100 µM.

In the case of `Cc1ccc(NCc2nc3[nH]c(C(C)C)cc(=O)n3n2)cc1` [Example 5t, 5-isopropyl-2-((p-tolylamino)methyl)-[1,2,4]triazolo[1,5-a]pyrimidin-7(4H)-one], the IC50 in assay [1] amounted to 16.8 µM. The concentration for 50% growth inhibition (GI50) in assay [2] (Homo sapiens, HREC, 44 h) is over 100 µM.

As to `Cc1ccc(Cl)cc1NCc1cc(=O)n2nc(-c3ccc(C(C)(C)C)cc3)nc2[nH]1` [Example D351-0310], in assay [1], the IC50 came to 0.0981 µM. The molecule also had a GI50 in assay [2] (Homo sapiens, HREC, 44 h) of 42.3 µM.

As for `CC(C)(C)c1ccc(-c2nc3[nH]c(CNc4cnccn4)cc(=O)n3n2)cc1` [Example 4d, 2-(4-(tert-butyl)phenyl)-5-((pyrazin-2-ylamino)methyl)-[1,2,4]triazolo[1,5-a]pyrimidin-7(4H)-one], the IC50 in assay [1] is over 100 µM. Also, in assay [2] (Homo sapiens, HREC, 44 h), the GI50 was over 100 µM.

Turning to `O=c1c2c([nH]c3nc(CNc4cccc(Cl)c4)nn13)CCC2` [Example D433-1831], in assay [1], the IC50 came to 1.57 µM. The GI50 in assay [2] (Homo sapiens, HREC, 44 h) was over 100 µM.

As for `Cc1ccc(NCc2nc3[nH]c4c(c(=O)n3n2)CCC4)cc1Cl` [Example D433-1848], the IC50 in assay [1] amounted to 0.227 µM. The GI50 in assay [2] (Homo sapiens, HREC, 44 h) was over 100 µM.

On to `Cc1cccc(C)c1NCc1cc(=O)n2nc(-c3ccc(C(C)(C)C)cc3)nc2[nH]1` [Example D351-0312], for which, in assay [1], the half-inhibitory concentration (IC50) amounted to 1.39 µM. Also, the GI50 in assay [2] (Homo sapiens, HREC, 44 h) is over 100 µM.

As to `CCCc1cc(=O)n2nc(CNc3ccc(F)c(Cl)c3)nc2[nH]1` [Example 5i, 2-(((3-chloro-4-fluorophenyl)amino)methyl)-5-propyl-[1,2,4]triazolo[1,5-a]pyrimidin-7(4H)-one], the IC50 in assay [1] was determined as 0.0336 µM. The same molecule came in with a GI50 in assay [2] (Homo sapiens, HREC, 44 h) of over 100 µM.

As to `CCc1ccccc1NCc1nc2[nH]c(C)c(Cc3ccc(Cl)cc3)c(=O)n2n1` [Example D433-1585], the 50% inhibitory concentration (IC50) in assay [1] came to 1.25 µM. The GI50 in assay [2] (Homo sapiens, HREC, 44 h) turned out to be 74.6 µM.

In turn, `CC(C)(C)c1ccc(-c2nc3[nH]c(CNc4cccc(Cl)c4)cc(=O)n3n2)cc1` [Example 4h, 2-(4-(tert-butyl)phenyl)-5-(((3-chlorophenyl)amino)methyl)-[1,2,4]triazolo[1,5-a]pyrimidin-7(4H)-one] yielded a GI50 in assay [2] (Homo sapiens, HREC, 44 h) of over 100 µM. Further, the “tube formation of HRECs” value in assay [3] is “blocked tube formation”.

With `CCCCCOc1ccc(NCc2nc3[nH]c(CCC)cc(=O)n3n2)cc1` [Example 5l, 2-(((4-(pentyloxy)phenyl)amino)methyl)-5-propyl-[1,2,4]triazolo[1,5-a]pyrimidin-7(4H)-one], the IC50 in assay [1] amounted to 78 µM. This molecule had a GI50 in assay [2] (Homo sapiens, HREC, 44 h) of over 100 µM.

On to `Cc1ccc(NCc2nc3[nH]c(C(C)C)cc(=O)n3n2)cc1Cl` [Example D433-1798], for which the IC50 in assay [1] stood at 1.02 µM. In addition, the GI50 in assay [2] (Homo sapiens, HREC, 44 h) was over 100 µM.

Regarding `Cc1ccccc1NCc1nc2[nH]c(C(C)C)cc(=O)n2n1` [Example 5r, 5-isopropyl-2-((o-tolylamino)methyl)-[1,2,4]triazolo[1,5-a]pyrimidin-7(4H)-one], in assay [1], the IC50 is 17.9 µM. In assay [2] (Homo sapiens, HREC, 44 h), this molecule yielded a GI50 of over 100 µM.

For the molecule `COc1ccc(Cl)cc1NCc1cc(=O)n2nc(-c3ccc(C(C)(C)C)cc3)nc2[nH]1` [Example D351-0303], the 50% inhibitory concentration (IC50) in assay [1] amounted to 0.808 µM. Further, the GI50 in assay [2] (Homo sapiens, HREC, 44 h) worked out at 21.7 µM.

With `CCCc1cc(=O)n2nc(CNc3ccc(C)c(Cl)c3)nc2[nH]1` [Example D433-1748], the IC50 in assay [1] amounted to 0.57 µM. This molecule also returned a GI50 in assay [2] (Homo sapiens, HREC, 44 h) of over 100 µM.
